In patent publication US5552419A, “Arylsulfonamido-substituted hydroxamic acids” (Ciba-Geigy Corporation, priority 1993, dated 1996):

What was measured:
cartilage degradation = assay: protection against cartilage degradation in a surgical model of osteoarthritis; type: in vivo
Source text: The effect in protecting against cartilage degradation in arthritic disorders can be determined e.g. in a surgical model of osteoarthritis described in Arthritis and Rheumatism, Vol. 26, 875-886 (1983).

[1] = biological target: recombinant human stromelysin (Homo sapiens, UniProt P08254); assay: release of KS and S-GAG fragments into the joint in rabbits after intra-articular injection of recombinant human stromelysin; type: in vivo, rabbit; details: 30 mg/kg, 4 hours prior to injection of human recombinant stromelysin
Experimental: The effect of compounds of the invention in-vivo can be determined in rabbits. […] Two hours later the rabbits are sacrificed, synovial lavage is collected, and keratan sulfate (KS) and sulfated glycosaminoglycan (S-GAG) fragments released into the joint are quantitated. Keratan sulfate is measured by an inhibition ELISA using the method of Thonar (Thonar, E. J.-M. A., Lenz, M. E., Klinsworth, G. K., Caterson, B., Pachman, L. M., Clickman, P.., Katz, R., Huff, J., Keuttner, K. E. Quantitation of keratan sulfate in blood as a marker of cartilage catabolism, Arthr. Rheum. 28, 1367-1376 (1985)). Sulfated glycosaminoglycans are measured by first digesting the synovial lavage with streptomyces hyaluronidase and then measuring DMB dye binding using the method of Goldberg (Goldberg, R. L. and Kolibas, L. An improved method for determining proteoglycan synthesized by chondrocytes in culture. Connect. Tiss. Res. 24, 265-275 (1990)). For an i.v. study, a compound is solubilized in 1 ml of PEG-400, and for a p.o. study, a compound is administered in 5 ml of fortified […] per kilogram of body weight.

Chain of recombinant human stromelysin (P08254 100-477): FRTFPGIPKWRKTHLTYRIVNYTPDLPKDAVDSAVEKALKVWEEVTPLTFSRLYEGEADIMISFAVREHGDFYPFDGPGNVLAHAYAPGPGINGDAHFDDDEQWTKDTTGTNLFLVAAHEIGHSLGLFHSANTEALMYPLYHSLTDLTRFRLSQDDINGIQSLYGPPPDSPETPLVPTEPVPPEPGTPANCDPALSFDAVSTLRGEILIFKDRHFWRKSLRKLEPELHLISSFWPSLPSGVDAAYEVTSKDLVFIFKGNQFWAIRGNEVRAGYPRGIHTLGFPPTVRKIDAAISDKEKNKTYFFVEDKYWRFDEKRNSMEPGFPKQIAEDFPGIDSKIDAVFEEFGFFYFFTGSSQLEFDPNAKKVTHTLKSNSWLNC

With `COc1ccc(S(=O)(=O)N(Cc2cccnc2)[C@@H](C(=O)NO)C(C)C)cc1.Cl` [N-hydroxy-2(R)-[[4-methoxybenzenesulfonyl](3-picolyl)amino]-3-methylbutanamide hydrochloride] the “effect in protecting against cartilage degradation in arthritic disorders” value (cartilage degradation) was “protects against cartilage degradation”, the “inhibition in the release of KS fragments into the joint” value ([1]; KS by inhibition ELISA) was 72% and the “inhibition in the release of S-GAG fragments into the joint” value ([1]; S-GAG by DMB dye binding) was 70%.
